Test results: US20100003190A1, “Method for protecting renal tubular epithelial cells from radiocontrast nephropathy (RCN)” (Caritas St. Elizabeth's Medical Center of Boston, Inc., priority 2006, published 2010)

Legend:
[1] = MTT cell viability of HK-2 cells exposed to iodinated radiocontrast media, with or without rhEpo; format: cell-based, human; settings: human, HK-2 cells (proximal tubular cell line), HK-2 cells, 100 mg iodine/mL contrast media, read-out: reduction of cell viability (MTT); for cytotoxicity at 1 h, 100 mg iodine/mL: 1-hour incubation; for cytotoxicity at 6 h, 100 mg iodine/mL: 6-hour incubation
Method: (§1) HK-2, a proximal tubular cell line derived from normal human kidney, and LLC-PK1, a proximal renal tubular cell line of porcine origin, were obtained from the American Type Culture Collection ATCC (Manassas, Va.). HK-2 cells were grown in DMEM media (GIBCO) supplemented with 10% FBS (Hyclone), 15 mM HEPES, 2 mM L-glutamine, 50 U/ml penicillin, 50 μg/ml streptomycin (GIBCO), 0.1 μg/ml hydrocortisone, 5 μg/ml insulin, and 5 μg/ml apotransferrin (Sigma, St. Louis, Mo.). LLC-PK1 cells were maintained in medium 199 (GIBCO) supplemented with 10% FBS and penicillin-streptomycin. For the planned experiments, cells were seeded on 24-well plates at a density of 10^4 cells/cm^2 and cultured at 37° C. for 24 hours.
(§2) […] The cell viability was assessed by the mitochondrial activity in reducing MTT to form […] using a commercially available kit (Cell Proliferation Kit, Roche, Penzberg, Germany). In brief, cells were incubated at 37° C. for 4 hours in 200 μl of serum-free, phenol red free medium containing 20 μl of the MTT labeling reagent. 200 μl of solubilization solution were added to each well and cells were incubated at 37° C. for 24 hours. Aliquots of the incubation medium were transferred to a 96-well microplate and absorbance was measured at 570 nm with the reference of 690 nm using a microplate reader (MRX-II, Dynex).

HK-2 cells = assay: as above; format: cell-based, human
Method: as §1, §2

caspase-3 = assay: Caspase-3 activity (Caspase-Glo 3/7) in LLC-PK1 cells after radiocontrast media; format: cell-based, porcine
Method: Activity of caspase-3 was measured by the degradation of subtype-specific peptide substrate after exposure of LLC-PK1 cells to iohexol or iodixanol. In brief, cells were seeded in 96-well plates and treated with radiocontrast media as described. After removal of the media, 100 μl of the Caspase-Glo 3/7 reagent (Promega, Madison, Wis.) were added to each well, and cells were incubated at room temperature for 1 hour. Luminescence of each sample was measured on a luminometer (Lumat LB9507, EGG Berthold). As a control for specificity, DEVD-CHO (Calbiochem, EMD Biosciences), a caspase-3 inhibitor, was added to appropriate wells during incubation in a final concentration of 50 μM. In parallel, cells were stained in wells with crystal violet and the absorption at 600 nm was measured. For each well, the luminometer data were normalized to the level of crystal violet absorption.

LLC-PK1 cells = assay: MTT cell viability of LLC-PK1 cells exposed to iodinated radiocontrast media, with or without rhEpo or darbepoetin; format: cell-based, porcine; settings: LLC-PK1 cells (data not shown)
Method: as §1
Cells were exposed to iodinated radiocontrast media (100 mg iodine/ml) for 6 hours at 37° C., then washed twice with Dulbecco PBS solution, and incubated in serum-free culture medium for 24 hours at 37° C. The cell viability was assessed by the mitochondrial activity in reducing MTT to form […] using a commercially available kit (Cell Proliferation Kit, Roche, Penzberg, Germany). […] Aliquots of the incubation medium were transferred to a 96-well microplate and absorbance was measured at 570 nm with the reference of 690 nm using a microplate reader (MRX-II, Dynex).

[2] = patients with chronic renal failure; cited from earlier work
[3] = renal tubular epithelial cells, co-treatment, cell line not given

CC(=O)Nc1c(I)c(NC(C)=O)c(I)c(C(=O)O)c1I [diatrizoate, 3,5-Diacetamido-2,4,6-triiodobenzoic acid]
cytotoxicity at 1 h, 100 mg iodine/mL [1]: 44% | cytotoxicity at 6 h, 100 mg iodine/mL [1]: 99% | toxic effects on renal tubular cells, comparison between contrast media (HK-2 cells; HK-2 cells, 6-hour incubation): more toxicity

CC(=O)N(CC(O)CN(C(C)=O)c1c(I)c(C(=O)NCC(O)CO)c(I)c(C(=O)NCC(O)CO)c1I)c1c(I)c(C(=O)NCC(O)CO)c(I)c(C(=O)NCC(O)CO)c1I (stereo not shown) [iodixanol]
effect on caspase-3 activity (caspase-3; LLC-PK1 cells, 100 mg iodine/ml): induced an increase | cell damage by radio-contrast agent (LLC-PK1 cells): marked cell damage | cytotoxicity at 1 h, 100 mg iodine/mL [1]: 33% | cytotoxicity at 6 h, 100 mg iodine/mL [1]: 48%

CC(=O)N(CC(O)CO)c1c(I)c(C(=O)NCC(O)CO)c(I)c(C(=O)NCC(O)CO)c1I (stereo not shown) [iohexol]
cell damage by radio-contrast agent (LLC-PK1 cells): marked cell damage | cytotoxicity at 1 h, 100 mg iodine/mL [1]: 36% | cytotoxicity at 6 h, 100 mg iodine/mL [1]: 60%

C[C@H](O)C(=O)Nc1c(I)c(C(=O)NC(CO)CO)c(I)c(C(=O)NC(CO)CO)c1I [iopamidol]
elimination half-life [2]: about 70 hours

DEVD-CHO
effect on radiocontrast-induced increase in caspase-3 activity (caspase-3; LLC-PK1 cells, iohexol or iodixanol, co-treatment with inhibitor 50 μM): abrogated

rhEpo: Recombinant human erythropoietin, a widely available agent for the treatment of anemia; Epoetin alfa (EPOGEN) purchased from Amgen
effect on iohexol-induced caspase-3 activation (caspase-3; LLC-PK1 cells, co-treatment, rhEpo 200 U/ml): suppressed | reduction of the induction of caspase-3 activation by iohexol (caspase-3; co-treatment of cells with rhEpo): 20% | protective effect against cytotoxic effect of iodixanol (HK-2 cells; HK-2 cells, 200 U/ml rhEpo, iodixanol 100 mg iodine/ml): similarly protective | protective effect against cellular toxicity of iohexol (HK-2 cells; HK-2 cells, 6 hours iohexol, three concentrations of rhEpo (0-400 U/ml), dose dependent): partially reversed | concentration providing ceiling of protective effect (HK-2 cells; HK-2 cells, iohexol): 200 U/ml | reduction of toxicity of iodixanol (MTT cell viability assay) (HK-2 cells; [3]): 20% | reduction of toxicity of iohexol (MTT cell viability assay) (HK-2 cells; [3]): 20%
